≈ marks a conversion by molar mass, not a printed value.
Columns and labels:
[1] = system: E. faecalis and E. faecium; test: MIC broth microdilution, summary over enterococci; assay type: cell-based; details: across the evaluated enterococci, VSE and VRE
Method: (§1) Twenty-four test agents were shipped to Micromyx and stored at −20° C. until assayed. The compounds were dissolved in 100% DMSO at 6.46 mg/mL prior to testing. Comparator drugs were supplied by Micromyx and were handled as described below:
(§2) The test organisms for the assay were recent clinical isolates or reference strains acquired from the American Type Culture Collection (ATCC; Manassas, Va.). Upon receipt, the isolates were streaked onto Trypticase Soy Agar II+5% sheep blood (TSAB). Colonies were harvested from the plates and a cell suspension was prepared in Trypticase Soy Broth containing cryoprotectant. Aliquots were then frozen at −80° C. Prior to the assay, the frozen seeds of all bacterial isolates to be tested were thawed and streaked for isolation onto TSAB (BD/BBL, Sparks, Md.; Lot No. 9011894), and were incubated overnight at 35° C.
(§3) The test medium for all isolates was cation-adjusted Mueller Hinton broth (CAMHB; BD/BBL; Lot No. 8190586). CAMHB (Cation Adjusted Mueller Hinton Broth) was supplemented with 3% (v/v) lysed horse blood (LHB; Hemostat, Dixon, Calif.; Lot No. 474990) for the testing of streptococci.
(§4) MIC values were determined using a broth microdilution method as recommended by CLSI. Automated liquid handlers (Multidrop 384, Labsystems, Helsinki, Finland; Biomek 2000 and Biomek F/X, Beckman Coulter, Fullerton Calif.) were used to conduct serial dilutions and make liquid transfers.
(§5) The wells of standard 96-well microdilution plates (Costar 3795, Corning Inc., Corning, N.Y.) were filled with 150 μL of the appropriate diluent in columns 2-12 on the Multidrop 384 (DMSO for the thiostrepton analogs, deionized H2O for vancomycin and ceftazidime). These plates were used to prepare the drug “mother plate” which provided the serial drug dilutions for the replicate “daughter plates”. The compounds (300 μL) were dispensed at 101× the highest concentration to be tested into the appropriate row of the “mother plate”. The Biomek 2000 was used to transfer 150 μL of each stock solution from the wells in Column 1 of the mother plate to make ten subsequent 2-fold serial dilutions. The wells of Column 12 contained no drug and served as the organism growth control wells. The daughter plates were loaded with 190 μL of test medium using the Multidrop 384.
(§6) The daughter plates were prepared on the Biomek F/X instrument which transferred […] of drug solution from each well of the mother plate to each corresponding well of each daughter plate in a single step. The wells of the daughter plates ultimately contained 190 μL of media, 2 μL of drug solution, and 10 μL of inoculum prepared as described below. The final concentration of DMSO (if used as a solvent) in the test well was 1%.
(§7) A standardized inoculum of each organism was prepared per CLSI methods. A suspension of organisms from a fresh plate was prepared in CAMHB to equal the turbidity of a 0.5 McFarland standard. The suspensions were diluted 1:20 in CAMHB, or in the case of streptococci CAMHB with LHB. The inoculum for each organism was dispensed into sterile reservoirs divided by length (Beckman Coulter), and the Biomek 2000 was used to inoculate the plates. Daughter plates were placed on the Biomek 2000 work surface reversed so that inoculation took place from low to high drug concentration. The Biomek 2000 delivered 10 μL of standardized inoculum into each well. These dilutions yielded a final cell concentration in the daughter plates of approximately 5.0×10^5 CFU/mL.
(§8) Plates were stacked 3 high, covered with a lid on the top plate, placed in plastic bags, and incubated at 35° C. for 16-20 hr for all organisms except streptococci which were incubated for 20-24 hr. Following incubation, the microplates were removed from the incubator and viewed from the bottom using a plate viewer. The MIC was read and recorded as the lowest concentration of drug that inhibited visible growth of the organism. […]

[2] = Aqueous solubility analysis in MOPS buffer; assay type: physicochemical; details: aqueous 10 mM MOPS buffer, thermodynamic from solid; after 24 hours in 10 mM aqueous MOPS buffer, pH 7.2
Method: A 2 dram vial was loaded with ˜0.5 mg of a thiostrepton derivative and suspended in ˜4 mL of aqueous 10 mM MOPS buffer (pKa 7.2). The suspension was stirred vigorously for 24 h to ensure equilibration, then filtered through a […] centrifuge filtration unit. A 3.0 mL aliquot was concentrated, and the dried residue was diluted with 0.30 mL of 1:1 1,4-dioxane/H2O (10× original concentration necessitated by detection limits). The total UV absorbance (200-300 nm) was measured in triplicate by UPLC runs with a photodiode array detector. A calibration curve for each compound was created using data points from 3 trials each of concentrations in 1:1 1,4-dioxane/H2O ranging from […]. These concentrations were plotted against their respective average absorbances. The experimental concentration of each compound was calculated by dividing the found μg/mL value by the residue concentration factor of 10 to yield the actual solubility value.

Gram-positive cocci = test: MIC broth microdilution, overall summary; assay type: cell-based; details: summary of MIC testing
Method: as §1, §2, §3, §4, §5
The daughter plates were prepared on the Biomek F/X instrument which transferred […] of drug solution from each well of the mother plate to each corresponding well of each daughter plate in a single step. […]
as §8, with “Following incubation, the microplates were removed from the incubator and viewed from the bottom using a plate viewer.” left out

E. faecalis MMX 486 VRE = test: MIC broth microdilution; assay type: cell-based; details: Enterococcus faecalis; E. faecalis MMX 486 VRE; CAMHB; read-out: MIC
Method: as §1, §2, §3, §4, §5, §6, §7, §8

E. faecium MMX 708 VSE = test: MIC broth microdilution; assay type: cell-based; details: Enterococcus faecium, MMX708VSE; E. faecium MMX 708 VSE; CAMHB; read-out: MIC
Method: as §1, §2, §3, §4, §5, §6, §7, §8

[3] = system: S. aureus ATCC 29213 MSSA; test: MIC broth microdilution; assay type: cell-based; details: Staphylococcus aureus; S. aureus ATCC 29213 MSSA; CAMHB; read-out: MIC
Method: as §1, §2, §3, §4, §5, §6, §7, §8

[4] = system: E. faecalis ATCC 29212 VSE; test: MIC broth microdilution; assay type: cell-based; details: Enterococcus faecalis, ATCC29212; E. faecalis ATCC 29212 VSE; CAMHB; read-out: MIC
Method: as §1, §2, §3, §4, §5, §6, §7, §8

E. faecium MMX 485 VRE = test: MIC broth microdilution; assay type: cell-based; details: Enterococcus faecium; E. faecium MMX 485 VRE; CAMHB; read-out: MIC
Method: as §1, §2, §3, §4, §5, §6, §7, §8

S. pyogenes ATCC 19615 = test: MIC broth microdilution; assay type: cell-based; details: Streptococcus pyogenes, ATCC19615, 20 h; S. pyogenes ATCC 19615; CAMHB with 3% lysed horse blood; read-out: MIC
Method: as §1, §2, §3, §4, §5, §6, §7, §8

S. aureus MMX 8088 MRSA = test: MIC broth microdilution; assay type: cell-based; details: Staphylococcus aureus; S. aureus MMX 8088 MRSA; CAMHB; read-out: MIC
Method: as §1, §2, §3, §4, §5, §6, §7, §8

E. coli ATCC 25922 = test: MIC broth microdilution; assay type: cell-based; details: Escherichia coli, ATCC25922; E. coli ATCC 25922; CAMHB; read-out: MIC
Method: as §1, §2, §3, §4, §5, §6, §7, §8

[5] = system: S. pneumoniae ATCC 49619 PISP; test: MIC broth microdilution; assay type: cell-based; details: Streptococcus pneumoniae, ATCC49619, 20 h; S. pneumoniae ATCC 49619 PISP; CAMHB with 3% lysed horse blood; read-out: MIC
Method: as §1, §2, §3, §4, §5, §6, §7, §8

S. aureus isolates = test: MIC broth microdilution, S. aureus isolates; assay type: cell-based; details: Staphylococcus aureus; across MSSA and MRSA isolates; read-out: MIC values against S. aureus isolates
Method: as §1, §2, §3, §4, §5, §6, §7, §8

[6] = Un-inoculated solubility control plate (drug precipitation); assay type: physicochemical

MIC values against E. faecalis and E. faecium [1]	MIC ([1]; read-out: MIC values against E. faecalis and E. faecium)	solubility at 24 h [2]	MIC (E. faecalis MMX 486 VRE)	MIC (E. faecium MMX 708 VSE)	MIC [3]	MIC [4]	MIC (E. faecium MMX 485 VRE)	MIC (S. pyogenes ATCC 19615)	MIC (S. aureus MMX 8088 MRSA)	MIC (E. coli ATCC 25922)	MIC [5]	MIC (S. aureus isolates)	Precipitation in CAMHB ([6]; at 64 μg/mL in CAMHB)	Precipitation in CAMHB in LHB ([6]; at 64 μg/mL in CAMHB in LHB)	Structure (SMILES)	Activity among the evaluated analogs / against evaluated Gram-positive cocci (summary in words) (Gram-positive cocci)
0.5 µg/mL (≈ 0.272 µM)	0.25 µg/mL (≈ 0.136 µM)	< 1 µg/mL	0.25 µg/mL (≈ 0.136 µM)	0.25 µg/mL (≈ 0.136 µM)	0.5 µg/mL (≈ 0.272 µM)	0.5 µg/mL (≈ 0.272 µM)	0.25 µg/mL (≈ 0.136 µM)	< 0.001 µg/mL	0.5 µg/mL (≈ 0.272 µM)	> 64 µg/mL	< 0.001 µg/mL	0.25 to 0.5 µg/mL (≈ 0.136 to 0.272 µM)	distinct precipitation	–	C=C(NC(=O)c1csc(C2=N[C@@H]3c4csc(n4)[C@H]4NC(=O)c5csc(n5)[C@H]([C@](C)(O)[C@@H](C)O)NC(=O)C5CSC(=N5)/C(=C/C)NC(=O)[C@H]([C@@H](C)O)NC(=O)c5csc(n5)[C@]3(CC2)NC(=O)[C@H](C)NC(=O)C(=C)NC(=O)[C@H](C)NC(=O)[C@H]([C@@H](C)CC)N[C@@H]2C=Cc3c([C@H](C)O)cc(nc3[C@H]2O)C(=O)O[C@@H]4C)n1)C(=O)NC(=CNC(=O)c1cccc(/C=N/OC)c1)C(N)=O [RJS-11]	most activity
–	–	1.4 µg/mL (≈ 0.748 µM)	0.5 µg/mL (≈ 0.267 µM)	1 µg/mL (≈ 0.534 µM)	0.5 µg/mL (≈ 0.267 µM)	0.5 µg/mL (≈ 0.267 µM)	0.5 µg/mL (≈ 0.267 µM)	0.004 µg/mL (≈ 0.00214 µM)	0.5 µg/mL (≈ 0.267 µM)	> 64 µg/mL	0.004 µg/mL (≈ 0.00214 µM)	0.25 to 0.5 µg/mL (≈ 0.134 to 0.267 µM)	–	–	C=C(NC(=O)c1csc(C2=N[C@@H]3c4csc(n4)[C@H]4NC(=O)c5csc(n5)[C@H]([C@](C)(O)[C@@H](C)O)NC(=O)C5CSC(=N5)/C(=C/C)NC(=O)[C@H]([C@@H](C)O)NC(=O)c5csc(n5)[C@]3(CC2)NC(=O)[C@H](C)NC(=O)C(=C)NC(=O)[C@H](C)NC(=O)[C@H]([C@@H](C)CC)N[C@@H]2C=Cc3c([C@H](C)O)cc(nc3[C@H]2O)C(=O)O[C@@H]4C)n1)C(=O)NC(=CNC(=O)c1cccc(/C=N/OCCO)c1)C(N)=O [RJS-14]	–
–	–	< 1 µg/mL	0.5 µg/mL (≈ 0.274 µM)	0.5 µg/mL (≈ 0.274 µM)	0.5 µg/mL (≈ 0.274 µM)	1 µg/mL (≈ 0.547 µM)	0.5 µg/mL (≈ 0.274 µM)	0.004 µg/mL (≈ 0.00219 µM)	0.5 µg/mL (≈ 0.274 µM)	> 64 µg/mL	0.002 µg/mL (≈ 0.00109 µM)	0.25 to 0.5 µg/mL (≈ 0.137 to 0.274 µM)	–	distinct precipitation	C=C(NC(=O)c1csc(C2=N[C@@H]3c4csc(n4)[C@H]4NC(=O)c5csc(n5)[C@H]([C@](C)(O)[C@@H](C)O)NC(=O)C5CSC(=N5)/C(=C/C)NC(=O)[C@H]([C@@H](C)O)NC(=O)c5csc(n5)[C@]3(CC2)NC(=O)[C@H](C)NC(=O)C(=C)NC(=O)[C@H](C)NC(=O)[C@H]([C@@H](C)CC)N[C@@H]2C=Cc3c([C@H](C)O)cc(nc3[C@H]2O)C(=O)O[C@@H]4C)n1)C(=O)NC(=CNC(=O)c1cccc(/C=N/O)c1)C(N)=O [RJS-17]	–

From patent US20220315624A1, “THIOSTREPTON ANALOGS AND METHODS OF MAKING AND USING SAME” (YALE UNIVERSITY, priority 2019, published 2022)
